Test results reported in ChEMBL document CHEMBL1145029, “Design, synthesis, and evaluation of benzothiadiazepine hydroxamates as selective tumor necrosis factor-alpha converting enzyme inhibitors” (J Med Chem, 2003).

What was measured:
[1] = target: T1, Interstitial collagenase (Homo sapiens, UniProt P03956); experiment: In vitro inhibitory activity against broad spectrum matrix metalloprotease-1 (MMP-1)
T1 sequence (P03956 whole entry): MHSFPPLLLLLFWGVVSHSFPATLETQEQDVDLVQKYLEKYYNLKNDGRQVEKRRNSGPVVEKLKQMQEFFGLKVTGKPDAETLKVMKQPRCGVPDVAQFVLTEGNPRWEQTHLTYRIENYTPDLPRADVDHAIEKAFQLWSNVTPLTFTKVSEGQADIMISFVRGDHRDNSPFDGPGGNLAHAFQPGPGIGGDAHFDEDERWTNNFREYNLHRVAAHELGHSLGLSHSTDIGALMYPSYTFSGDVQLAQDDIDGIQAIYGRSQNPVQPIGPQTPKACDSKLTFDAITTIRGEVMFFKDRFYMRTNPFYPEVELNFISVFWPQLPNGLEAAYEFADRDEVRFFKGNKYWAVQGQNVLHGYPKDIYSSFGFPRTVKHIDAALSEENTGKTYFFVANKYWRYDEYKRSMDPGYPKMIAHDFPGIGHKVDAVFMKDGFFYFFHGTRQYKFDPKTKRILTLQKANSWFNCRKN

[2] = target: 72 kDa type IV collagenase (Homo sapiens, UniProt P08253)
72 kDa type IV collagenase, sequence (P08253 whole entry): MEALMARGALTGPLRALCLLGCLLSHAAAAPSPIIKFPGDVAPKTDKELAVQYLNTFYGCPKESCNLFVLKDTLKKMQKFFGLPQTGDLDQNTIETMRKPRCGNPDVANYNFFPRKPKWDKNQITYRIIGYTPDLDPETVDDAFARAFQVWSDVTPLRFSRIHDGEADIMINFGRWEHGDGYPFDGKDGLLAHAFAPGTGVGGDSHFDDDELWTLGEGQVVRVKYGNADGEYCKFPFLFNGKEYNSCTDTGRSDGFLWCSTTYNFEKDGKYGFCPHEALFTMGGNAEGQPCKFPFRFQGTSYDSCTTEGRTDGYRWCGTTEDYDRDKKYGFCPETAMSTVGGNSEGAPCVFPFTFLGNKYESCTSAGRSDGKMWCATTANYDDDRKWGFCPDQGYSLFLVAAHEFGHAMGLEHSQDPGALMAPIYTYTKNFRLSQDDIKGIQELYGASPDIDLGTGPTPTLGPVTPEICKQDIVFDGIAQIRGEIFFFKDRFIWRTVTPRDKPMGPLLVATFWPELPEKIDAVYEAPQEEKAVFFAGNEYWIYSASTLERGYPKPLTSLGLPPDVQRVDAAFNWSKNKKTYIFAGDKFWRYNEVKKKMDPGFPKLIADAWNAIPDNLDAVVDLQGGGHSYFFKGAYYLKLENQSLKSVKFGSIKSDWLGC
Description: In vitro inhibitory activity against broad spectrum matrix metalloprotease-2 (MMP-2)

[3] = target: Matrix metalloproteinase-9 (Homo sapiens, UniProt P14780); experiment: In vitro inhibitory activity against broad spectrum matrix metalloprotease-9 (MMP-9)
Matrix metalloproteinase-9, sequence (P14780 whole entry, the tested form may be a part): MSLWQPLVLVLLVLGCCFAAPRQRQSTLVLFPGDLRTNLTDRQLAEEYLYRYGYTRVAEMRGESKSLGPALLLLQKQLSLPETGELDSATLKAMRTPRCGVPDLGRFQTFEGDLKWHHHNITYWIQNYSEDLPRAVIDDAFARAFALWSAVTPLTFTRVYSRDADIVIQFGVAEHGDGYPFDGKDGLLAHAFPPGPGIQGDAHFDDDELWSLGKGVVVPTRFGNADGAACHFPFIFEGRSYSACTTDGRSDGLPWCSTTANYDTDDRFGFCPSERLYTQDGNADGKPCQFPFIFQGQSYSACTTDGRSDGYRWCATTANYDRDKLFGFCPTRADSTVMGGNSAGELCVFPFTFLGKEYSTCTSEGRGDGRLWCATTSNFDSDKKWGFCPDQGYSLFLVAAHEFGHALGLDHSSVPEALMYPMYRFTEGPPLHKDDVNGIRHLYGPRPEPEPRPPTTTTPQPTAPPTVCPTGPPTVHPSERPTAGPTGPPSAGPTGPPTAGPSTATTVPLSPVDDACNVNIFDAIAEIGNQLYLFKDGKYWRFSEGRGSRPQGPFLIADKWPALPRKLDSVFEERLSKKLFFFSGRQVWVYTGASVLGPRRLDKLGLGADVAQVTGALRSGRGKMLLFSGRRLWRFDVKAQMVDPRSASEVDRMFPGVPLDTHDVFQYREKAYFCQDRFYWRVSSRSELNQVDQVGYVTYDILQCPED

[4] = target: T2, Disintegrin and metalloproteinase domain-containing protein 17 (Homo sapiens, UniProt P78536); experiment: Ability to suppress the formation of TNF-aplha in human peripheral blood mononuclear cell assay(PBMC); assay type: functional
T2 sequence (P78536 whole entry, the tested form may be a part): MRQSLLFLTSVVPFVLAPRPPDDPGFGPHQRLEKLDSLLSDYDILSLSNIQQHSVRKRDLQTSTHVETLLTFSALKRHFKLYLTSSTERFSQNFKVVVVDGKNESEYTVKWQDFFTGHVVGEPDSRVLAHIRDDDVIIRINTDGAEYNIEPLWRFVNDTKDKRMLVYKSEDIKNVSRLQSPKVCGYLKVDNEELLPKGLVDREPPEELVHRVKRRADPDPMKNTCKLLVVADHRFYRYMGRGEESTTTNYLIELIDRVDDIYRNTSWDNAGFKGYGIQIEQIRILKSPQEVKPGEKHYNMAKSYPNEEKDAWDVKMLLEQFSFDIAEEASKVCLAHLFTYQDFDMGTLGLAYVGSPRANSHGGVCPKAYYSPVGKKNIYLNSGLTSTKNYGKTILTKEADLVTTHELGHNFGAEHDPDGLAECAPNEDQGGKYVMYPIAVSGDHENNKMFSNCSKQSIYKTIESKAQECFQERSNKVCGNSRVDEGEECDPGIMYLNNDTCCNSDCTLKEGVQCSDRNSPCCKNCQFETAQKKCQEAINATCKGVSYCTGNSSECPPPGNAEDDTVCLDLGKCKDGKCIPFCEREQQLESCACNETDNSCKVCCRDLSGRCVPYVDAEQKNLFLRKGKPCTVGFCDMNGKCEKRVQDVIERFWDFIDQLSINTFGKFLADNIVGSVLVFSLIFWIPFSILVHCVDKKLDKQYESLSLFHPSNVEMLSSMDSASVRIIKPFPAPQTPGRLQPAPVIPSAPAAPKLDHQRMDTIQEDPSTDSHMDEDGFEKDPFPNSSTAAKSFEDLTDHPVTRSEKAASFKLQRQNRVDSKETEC

[5] = target: T2, Disintegrin and metalloproteinase domain-containing protein 17; experiment: Ability to suppress the formation of TNF-aplha in human whole blood assay (WBA); assay type: functional, tissue-based

| Ki [1] | Ki [2] | Ki [3] | IC50 [4] | IC50 [5] | SMILES |
| --- | --- | --- | --- | --- | --- |
| > 4950 nM | 75 nM | 567 nM | – | – | C[C@H](C(=O)NO)N1CCNc2ccccc2S1(=O)=O |
| > 4950 nM | 154 nM | > 2130 nM | 5400 nM | – | COc1cc(COc2ccc3c(c2)NCCN([C@H](CC(C)C)C(=O)NO)S3(=O)=O)cc(OC)c1 |
| > 4950 nM | 136 nM | > 2130 nM | – | – | Cc1cc(C)cc(COc2ccc3c(c2)NCCN([C@H](C)C(=O)NO)S3(=O)=O)c1 |
| > 4950 nM | 647 nM | 981 nM | 4000 nM | – | COc1cc(COc2ccc3c(c2)NCCN([C@@H](C(=O)NO)C(C)C)S3(=O)=O)cc(OC)c1 |
| > 4950 nM | 94 nM | 993 nM | – | – | Cc1cc(C)cc(C(=O)Nc2ccc3c(c2)NCCN([C@H](C)C(=O)NO)S3(=O)=O)c1 |
| 272 nM | < 2.8 nM | 8 nM | – | – | C[C@H](C(=O)NO)N1CCNc2cc(-c3ccccc3)ccc2S1(=O)=O |
| > 4950 nM | < 2.8 nM | 7 nM | 840 nM | – | C[C@H](C(=O)NO)N1CCNc2cc(Oc3ccc(C(F)(F)F)cc3)ccc2S1(=O)=O |
| > 4950 nM | 32 nM | 118 nM | – | – | COc1cc(COc2ccc3c(c2)NCCN([C@H](CCCCNC(=O)OC(C)(C)C)C(=O)NO)S3(=O)=O)cc(OC)c1 |
| > 4950 nM | 2520 nM | > 2130 nM | – | – | C[C@H](C(=O)NO)N1CCNc2cc(-c3ccccc3C(F)(F)F)ccc2S1(=O)=O |
| > 4950 nM | 1380 nM | > 2130 nM | 1100 nM | 24000 nM | CCOc1cc(COc2ccc3c(c2)NCCN([C@H](CCCC(=O)OC)C(=O)NO)S3(=O)=O)cc(OCC)c1 |
| 732 nM | 52 nM | 751 nM | – | – | COc1ccc2c(c1)NCCN([C@@H](C(=O)NO)C(C)C)S2(=O)=O |
| > 4950 nM | 312 nM | 1050 nM | – | – | COc1ccc2c(c1)NCN([C@H](C)C(=O)NO)S2(=O)=O |
| 479 nM | 11 nM | 80 nM | 9500 nM | – | CC(C)C[C@H](C(=O)NO)N1CCNc2cc(O)ccc2S1(=O)=O |
| > 4950 nM | 8 nM | 19 nM | 1200 nM | 15000 nM | C[C@H](C(=O)NO)N1CCNc2cc(Oc3ccc([N+](=O)[O-])cc3)ccc2S1(=O)=O |
| > 4950 nM | 690 nM | > 2130 nM | 4500 nM | – | CCOc1cc(COc2ccc3c(c2)NCCN([C@H](C)C(=O)NO)S3(=O)=O)cc(OCC)c1 |
| > 4950 nM | 391 nM | > 2130 nM | 1900 nM | 38000 nM | COc1cc(COc2ccc3c(c2)NCCN([C@H](CCCCNS(C)(=O)=O)C(=O)NO)S3(=O)=O)cc(OC)c1 |
| 548 nM | < 2.8 nM | < 2.1 nM | 350 nM | – | CC(C)C[C@H](C(=O)NO)N1CCNc2cc(OCc3ccccc3)ccc2S1(=O)=O |

| Ki [1] | Ki [2] | Ki [3] | IC50 [4] | IC50 [5] | SMILES |
| --- | --- | --- | --- | --- | --- |
| > 4950 nM | 231 nM | > 2130 nM | – | – | COc1cc(COc2ccc3c(c2)NCCN([C@H](CCCCN)C(=O)NO)S3(=O)=O)cc(OC)c1 |
| > 4950 nM | 491 nM | > 2130 nM | 770 nM | 28000 nM | COc1cc(COc2ccc3c(c2)NCCN([C@H](C)C(=O)NO)S3(=O)=O)cc(OC)c1 |
| 2020 nM | < 2.8 nM | < 2.1 nM | – | – | C[C@H](C(=O)NO)N1CCNc2cc(Oc3ccc(-c4ccccc4)cc3)ccc2S1(=O)=O |
| 980 nM | < 2.8 nM | 100 nM | – | – | C[C@H](C(=O)NO)N1CCNc2cc(O)ccc2S1(=O)=O |
| > 4950 nM | 1920 nM | > 2130 nM | – | – | O=C(CN1CCNc2ccccc2S1(=O)=O)NO |
| > 4950 nM | < 2.8 nM | 3.6 nM | – | – | C[C@H](C(=O)NO)N1CCNc2cc(OCc3ccccc3)ccc2S1(=O)=O |
| > 4950 nM | 85 nM | 96 nM | 470 nM | 1400 nM | C[C@H](C(=O)NO)N1CCNc2cc(Oc3cccc([N+](=O)[O-])c3)ccc2S1(=O)=O |
| > 4950 nM | 332 nM | > 2130 nM | 900 nM | – | COC(=O)CCC[C@H](C(=O)NO)N1CCNc2cc(OCc3cc(OC)cc(OC)c3)ccc2S1(=O)=O |
| > 4950 nM | 1500 nM | > 2130 nM | – | – | COc1ccc2c(c1)NCCN(CC(=O)NO)S2(=O)=O |
| > 4950 nM | 49 nM | 1210 nM | 940 nM | – | C[C@H](C(=O)NO)N1CCNc2cc(OCc3cc(Cl)cc(Cl)c3)ccc2S1(=O)=O |
| > 4950 nM | 1590 nM | > 2130 nM | 7200 nM | – | COC(=O)CC[C@H](C(=O)NO)N1CCNc2cc(OCc3cc(OC)cc(OC)c3)ccc2S1(=O)=O |
| > 4950 nM | 23 nM | 3 nM | – | – | C[C@H](C(=O)NO)N1CCNc2cc(Oc3ccccc3)ccc2S1(=O)=O |
| > 4950 nM | 960 nM | > 2130 nM | 6200 nM | – | CCOc1cc(COc2ccc3c(c2)NCCN([C@H](CCC(=O)OC)C(=O)NO)S3(=O)=O)cc(OCC)c1 |
| > 4950 nM | < 2.8 nM | < 2.1 nM | – | – | COc1ccc(Oc2ccc3c(c2)NCCN([C@H](C)C(=O)NO)S3(=O)=O)cc1 |
| 1060 nM | – | 104 nM | – | – | COc1ccc2c(c1)NCCN([C@H](C)C(=O)NO)S2(=O)=O |
| > 4950 nM | 3000 nM | > 2130 nM | 8200 nM | – | CCOc1cc(COc2ccc3c(c2)NCCN([C@@H](C(=O)NO)C(C)C)S3(=O)=O)cc(OCC)c1 |
| > 4950 nM | 75 nM | 347 nM | – | – | COc1cc(CNc2ccc3c(c2)NCCN([C@H](CC(C)C)C(=O)NO)S3(=O)=O)cc(OC)c1 |

| SMILES | Ki [1] | Ki [2] | Ki [3] | IC50 [4] | IC50 [5] |
| --- | --- | --- | --- | --- | --- |
| Cc1cc(COc2ccc3c(c2)NCCN([C@H](C)C(=O)NO)S3(=O)=O)cc(C)n1 | > 4950 nM | 75 nM | 1840 nM | 2900 nM | – |
| Cc1nc(COc2ccc3c(c2)NCCN([C@@H](C(=O)NO)C(C)C)S3(=O)=O)sc1C | > 4950 nM | 361 nM | > 2130 nM | 24500 nM | – |
